The text below walks through data of US20080280833A1, “Therapeutic Peptides Derived from Urokinase Plasminogen Activator Receptor” (priority 2005, published 2008).

Experiment [1] relates to rat smooth muscle cells (RSMC). The experiment in a line: Chemotaxis assay, rat smooth muscle cells. The experiment is classed as cell-based. Conditions: for inhibition of D2A-induced RSMC migration: attractant D2A; for inhibition of VN-induced RSMC migration: attractant VN. How it is done:
(§1) Chemotaxis assay was performed as described (Degryse et al., 1999, 2001a, 2001b) with modified Boyden chambers. Filters (5 μm pore size, Neuro Probe, Gaithersburg, Md.) were treated with collagen I (100 μg/ml) and fibronectin (10 μg/ml, Roche).≈40-50,000 cells in serum-free DMEM were added to the upper well and the chemoattractants tested added to the lower well. When present, antibodies, or inhibitors were added in both wells. After overnight migration at 37° C., cells remaining on the upper surface of filters were scraped off and filters were fixed in methanol and stained in a solution of 10% (w/v) crystal violet in 20% (v/v) methanol. The experiments were performed at least twice in triplicate and the results, expressed as fold over control, are the mean ±SD of the number of cells counted in ten high power fields per filter. Random cell migration, i.e. migration in the absence of chemoattractant, was given the arbitrary value of 100%.

Experiment [2] concerns human HT1080 fibrosarcoma cells. The experiment in a line: Matrigel invasion assay. Particulars: for inhibition of EGF-dependent invasion / inhibition of insulin-dependent invasion: HT1080, 100 pM; for inhibition of VN-induced invasiveness / inhibition of uPA-induced invasiveness: HT1080, at about the same concentration (around 1 pM); for inhibition of FN-induced invasion: HT1080, at the same concentration; for stimulation of Matrigel invasiveness of HT1080 cells: substance alone, 24 hours at 37° C.; for concentration of peak stimulation of Matrigel invasiveness: HT1080, dose-dependent. The experiment is classed as cell-based.

Experiment [3] has as its system KG-1 cells. The experiment in a line: Chemotaxis assay of non adherent cells, Boyden micro-chamber. The experiment is classed as cell-based, human. Particulars: for chemotaxis of KG-1 cells: peptide as chemoattractant, 1 hour at 37° C. How it is done:
Chemotaxis assay of non adherent cells was performed as described (Degryse et al., 2001; FEBS lett. 505: 249-254) using modified Boyden micro-chamber with the exception that the filter was not treated. 50,000 cells were added in the top well in serum-free RPMI medium and allowed to migrate for 1 hour at 37° C. The molecules to be tested as chemoattractant were diluted in serum-free RPMI medium and added in the lower well of the Boyden chamber. Experiments were performed in triplicate. Results are the mean ±SD of the number of cells counted in five high power fields. Migration in the absence of chemoattractant is referred to as 100%.

For experiment [4], the system named is Rat Smooth Muscle Cells and HT1080 Human Fibrosarcoma Cells. Description: Boyden chamber assays, pleiotropic inhibition of chemotaxis. Format: cell-based. The text has this: In Boyden chamber assays, D2A-Ala and GAAG inhibit not only VN-dependent and uPA-dependent chemotaxis (as reported above), but also EGF— and UTP-dependent chemotaxis. The effect is dose-dependent. Notice that the EGF-dependent and the UTP-dependent chemotaxis work through receptors (EGF-receptor and P2Y2 receptor, respectively), that are different among themselves and are different from those employed by uPA (uPAR) and VN (αvβ3). We conclude that these two inhibitors are general inhibitors of chemotaxis.

Experiment [5] has as its system HEK-293 cells. The experiment in a line: Chemotaxis assay, HEK-293 cells. Conditions: for cell migration in the presence of VN: HEK-293, VN 1 μg/ml + peptide 1 pM; for cell migration: HEK-293, peptide alone 1 pM. Format: cell-based, human. The procedure:
as §1

The subject of experiment [6] is HEK-293-uPAR cells. Description: Chemotaxis assay, HEK-293-uPAR cells. Format: cell-based, human. Particulars: HEK-293-uPAR; for cell migration in the presence of VN: VN 1 μg/ml + peptide 1 pM; for cell migration: peptide alone 1 pM. The procedure: as §1
In experiment [7] the test system is human smooth muscle cells from the coronary artery (CASMC). Description: Chemotaxis assay, human coronary artery smooth muscle cells. Format: cell-based. How it is done:
as §1

Experiment [8] has as its system human smooth muscle cells from the aorta (AoSMC). Description: Chemotaxis assay, human aortic smooth muscle cells. The experiment is classed as cell-based. The procedure: as §1
The target of experiment [9] is T1, uPAR-αvβ3 complexes (Homo sapiens, UniProt P05106+P06756).
T1 construct: purchased Chemicon (integrins); American Diagnostica (uPA)
T1 sequence (P06756 31-889 limits assumed): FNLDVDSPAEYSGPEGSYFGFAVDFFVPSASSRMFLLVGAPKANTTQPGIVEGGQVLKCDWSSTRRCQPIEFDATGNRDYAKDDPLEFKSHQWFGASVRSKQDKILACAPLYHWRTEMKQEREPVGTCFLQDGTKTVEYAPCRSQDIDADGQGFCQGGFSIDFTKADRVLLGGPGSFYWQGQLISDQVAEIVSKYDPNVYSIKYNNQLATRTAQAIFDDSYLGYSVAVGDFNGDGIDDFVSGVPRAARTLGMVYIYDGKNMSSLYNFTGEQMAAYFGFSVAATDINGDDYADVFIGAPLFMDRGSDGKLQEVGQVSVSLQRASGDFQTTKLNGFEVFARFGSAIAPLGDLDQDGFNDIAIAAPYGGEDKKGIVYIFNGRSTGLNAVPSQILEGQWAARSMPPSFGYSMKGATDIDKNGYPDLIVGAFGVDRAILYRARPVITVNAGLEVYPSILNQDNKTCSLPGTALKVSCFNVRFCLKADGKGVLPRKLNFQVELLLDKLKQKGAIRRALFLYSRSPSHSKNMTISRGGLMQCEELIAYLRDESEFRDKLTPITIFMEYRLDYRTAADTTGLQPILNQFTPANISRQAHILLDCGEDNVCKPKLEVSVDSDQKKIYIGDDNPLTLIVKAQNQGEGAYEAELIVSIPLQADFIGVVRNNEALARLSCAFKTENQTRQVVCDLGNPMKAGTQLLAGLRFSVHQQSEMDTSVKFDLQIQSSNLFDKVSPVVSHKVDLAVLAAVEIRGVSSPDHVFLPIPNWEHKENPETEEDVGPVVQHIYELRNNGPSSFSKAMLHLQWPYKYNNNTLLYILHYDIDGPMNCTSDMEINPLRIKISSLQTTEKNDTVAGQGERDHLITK
T1 sequence (P06756 891-1048 limits assumed): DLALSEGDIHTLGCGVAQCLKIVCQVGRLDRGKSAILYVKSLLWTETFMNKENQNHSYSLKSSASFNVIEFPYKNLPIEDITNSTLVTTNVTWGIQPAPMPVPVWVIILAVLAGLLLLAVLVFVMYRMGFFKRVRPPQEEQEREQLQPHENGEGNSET
T1 sequence (P05106 27-788): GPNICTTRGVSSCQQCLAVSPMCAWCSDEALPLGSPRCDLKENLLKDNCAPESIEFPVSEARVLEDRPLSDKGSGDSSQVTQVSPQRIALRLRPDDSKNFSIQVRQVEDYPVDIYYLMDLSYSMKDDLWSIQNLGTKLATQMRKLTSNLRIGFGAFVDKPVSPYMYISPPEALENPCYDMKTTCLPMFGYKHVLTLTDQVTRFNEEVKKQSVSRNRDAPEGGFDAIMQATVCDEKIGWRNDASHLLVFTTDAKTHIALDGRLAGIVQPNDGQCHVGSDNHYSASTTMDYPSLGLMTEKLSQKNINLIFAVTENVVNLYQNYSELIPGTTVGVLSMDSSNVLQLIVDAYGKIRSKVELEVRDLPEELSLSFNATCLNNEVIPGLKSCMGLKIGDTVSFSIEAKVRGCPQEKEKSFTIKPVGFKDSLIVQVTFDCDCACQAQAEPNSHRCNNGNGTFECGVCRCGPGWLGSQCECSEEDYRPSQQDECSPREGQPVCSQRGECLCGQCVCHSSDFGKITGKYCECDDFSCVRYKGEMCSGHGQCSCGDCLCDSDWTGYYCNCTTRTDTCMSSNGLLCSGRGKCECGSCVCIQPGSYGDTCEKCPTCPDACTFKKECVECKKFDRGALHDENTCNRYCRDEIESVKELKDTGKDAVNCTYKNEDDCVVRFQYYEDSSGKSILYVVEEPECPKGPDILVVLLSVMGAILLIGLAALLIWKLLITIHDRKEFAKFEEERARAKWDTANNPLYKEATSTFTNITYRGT
The experiment in a line: Pull-down assay, 125I-suPAR with purified αvβ3 integrin. The experiment is classed as binding. How it is done:
(§2) Soluble uPAR (suPAR) was radioiodinated (as for VN, see above) at a specific activity of 1.5×10^5 cpm/ng. A mix composed of 2 μg of either purified αvβ3 or α5β1 integrin, and […] of ^125I-suPAR was incubated for 4 hours at 4° C. in the absence (control) or in the presence of 4 μg of uPA with or without 5 μg of either D2A or D2A-Ala peptide in binding buffer, (RPMI plus 0.02% BSA, 10 mM HEPES pH 7.4, total volume 300 μl). Complexes were immunoprecipitated with 3 μg of anti-αvβ3 (LM609) or anti-α5β1 monoclonal antibody, and 60 μl of protein G-agarose beads (Amersham Biosciences), Beads were washed three times in binding buffer, extracted in reducing sample buffer, and proteins were fractionated by SDS-PAGE. Gels were analyzed by autoradiography and densitometry. Results are presented as percentage of relative density units normalized to uPA alone.

Experiment [10] relates to RSMC. The experiment in a line: Immunofluorescence microscopy, actin cytoskeleton and cell morphology. The experiment is classed as cell-based, rat. Particulars: 30 minutes at 37° C., peptide 1 pM or VN 1 μg/ml. How it is done:
(§3) As previously described (Degryse et al., 1999; 2004) 15,000-25,000 cells (20-40% confluence), were seeded on glass coverslips in 2 cm^2 well, cultured for 24 hours in DMEM plus 10% FCS, washed with PBS and cultured for another 24 hours without FCS. After stimulation, RSMC were fixed for 20 min at RT with 3% paraformaldehyde, 2% sucrose in PBS pH 7.5, washed 3 times with PBS-BSA 0.2%, permeabilized with 20 mM hepes pH 7.4, 300 mM saccharose, 50 mM NaCl, 3 mM MgCl2, 0.5% (v/v) Triton X-100 for 3 min at 4° C., and washed 3 times with PBS-BSA 0.2%. RSMC were incubated in PBS-BSA 2% for 15 min at 37° C., then with anti-Stat1 primary antibodies for 30 min at 37° C., washed 3 times with PBS-BSA 0.2%, and further incubated with PBS-BSA 2% for 15 min at 37° C. Cells were stained with the secondary TRITC-antibody and with FITC-phalloidin for visualization of filamentous actin, for 30 min at 37° C. DAPI (4′,6-diamidino-2-phenylindole, Roche) was used to label the nucleus. Finally, after 3 washes with PBS-BSA 0.2%, one with distilled water, coverslips were mounted with 20% (w/v) Mowiol. Fluorescence Photographs were taken with a Zeiss Axiophot microscope

The subject of experiment [11] is Stat1. The experiment in a line: Immunofluorescence microscopy, Stat1 distribution. The experiment is classed as cell-based, rat. Particulars: RSMC; for Stat1 activation and translocation into the nucleus: 30 minutes at 37° C., peptide 1 pM or VN 1 μg/ml. The procedure: as §3
To quantify the activation of Stat1, random pictures were taken and nuclei positively stained for Stat1 were counted and expressed in percent.

The test system of experiment [12] is LB6-D1HD3 cells. Description: Chemotaxis assay, LB6-D1HD3 cells (uPAR lacking domain 2). Format: cell-based, mouse. How it is done:
as §1

Experiment [13] addresses T2, uPAR-α5β1 complexes (Homo sapiens, UniProt P05556+P08648).
T2 construct: purchased Chemicon (integrins); American Diagnostica (uPA)
Description: Pull-down assay, 125I-suPAR with purified α5β1 integrin. Particulars: in the presence of uPA. Format: binding. The procedure:
as §2

T2 sequence (P08648 42-894 limits assumed): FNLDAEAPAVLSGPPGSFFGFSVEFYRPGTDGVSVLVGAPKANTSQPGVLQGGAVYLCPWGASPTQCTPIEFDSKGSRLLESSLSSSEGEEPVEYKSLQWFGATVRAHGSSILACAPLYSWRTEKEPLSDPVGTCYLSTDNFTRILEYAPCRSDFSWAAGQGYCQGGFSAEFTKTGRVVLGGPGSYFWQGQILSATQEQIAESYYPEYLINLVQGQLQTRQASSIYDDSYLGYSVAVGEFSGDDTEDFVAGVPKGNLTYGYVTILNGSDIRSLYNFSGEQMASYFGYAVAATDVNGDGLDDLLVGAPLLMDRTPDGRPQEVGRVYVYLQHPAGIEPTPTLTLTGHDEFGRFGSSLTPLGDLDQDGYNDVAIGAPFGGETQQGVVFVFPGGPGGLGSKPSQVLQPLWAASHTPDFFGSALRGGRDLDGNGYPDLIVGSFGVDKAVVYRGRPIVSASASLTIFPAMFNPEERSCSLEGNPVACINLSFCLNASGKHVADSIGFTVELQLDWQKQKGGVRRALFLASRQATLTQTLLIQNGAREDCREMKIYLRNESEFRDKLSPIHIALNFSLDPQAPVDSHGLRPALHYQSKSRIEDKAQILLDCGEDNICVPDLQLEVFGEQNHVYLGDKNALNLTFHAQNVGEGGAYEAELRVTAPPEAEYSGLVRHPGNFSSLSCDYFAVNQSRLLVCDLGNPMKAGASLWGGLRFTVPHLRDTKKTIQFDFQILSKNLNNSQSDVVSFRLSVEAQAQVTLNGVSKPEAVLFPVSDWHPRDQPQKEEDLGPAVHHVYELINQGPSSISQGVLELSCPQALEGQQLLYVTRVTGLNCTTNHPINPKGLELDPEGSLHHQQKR
T2 sequence (P08648 895-1049 limits assumed): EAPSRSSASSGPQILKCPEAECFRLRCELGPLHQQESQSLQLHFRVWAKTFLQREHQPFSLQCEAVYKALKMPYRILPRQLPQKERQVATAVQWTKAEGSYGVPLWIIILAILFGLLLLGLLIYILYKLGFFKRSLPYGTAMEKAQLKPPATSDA
T2 sequence (P05556 21-798): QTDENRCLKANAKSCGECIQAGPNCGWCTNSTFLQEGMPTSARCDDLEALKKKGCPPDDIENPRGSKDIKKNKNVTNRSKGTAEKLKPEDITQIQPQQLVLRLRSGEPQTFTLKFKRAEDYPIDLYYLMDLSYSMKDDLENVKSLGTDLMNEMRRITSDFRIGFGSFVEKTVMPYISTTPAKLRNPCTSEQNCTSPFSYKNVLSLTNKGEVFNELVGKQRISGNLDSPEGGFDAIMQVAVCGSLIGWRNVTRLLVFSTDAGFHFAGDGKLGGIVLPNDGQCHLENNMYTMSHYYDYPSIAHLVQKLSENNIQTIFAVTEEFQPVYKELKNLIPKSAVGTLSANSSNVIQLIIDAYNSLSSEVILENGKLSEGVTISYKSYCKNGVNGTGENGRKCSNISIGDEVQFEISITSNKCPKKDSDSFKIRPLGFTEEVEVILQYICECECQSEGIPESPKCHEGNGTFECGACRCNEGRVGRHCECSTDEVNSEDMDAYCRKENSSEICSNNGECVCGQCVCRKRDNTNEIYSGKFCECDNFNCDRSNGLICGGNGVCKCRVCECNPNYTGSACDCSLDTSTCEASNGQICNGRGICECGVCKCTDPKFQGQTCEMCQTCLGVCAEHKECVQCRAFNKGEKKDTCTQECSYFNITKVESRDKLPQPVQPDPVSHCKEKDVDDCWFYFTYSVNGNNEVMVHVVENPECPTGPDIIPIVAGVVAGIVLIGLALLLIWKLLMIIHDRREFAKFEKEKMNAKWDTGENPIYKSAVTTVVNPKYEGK

As for `N#C/C(=C/c1ccc(O)c(O)c1)C(=O)NCc1ccccc1` [AG-490, reference compound], in experiment [1] (RSMC), the “inhibition of D2A-induced RSMC migration” value is recorded as “inhibited” and the “inhibition of VN-induced RSMC migration” value was “inhibited”.

As for `COc1cccc(-c2cc(=O)c3ccccc3o2)c1N` [PD98059, reference compound], in [1] (RSMC), the “inhibition of D2A-induced RSMC migration” value was “Neither VN- nor D2A-induced cell migration were blocked” and the “inhibition of VN-induced RSMC migration” value is given as “Neither VN- nor D2A-induced cell migration were blocked”.

For “GAAG (Amino acid sequence motif) [shorter version of D2A-Ala]”, in experiment [2], the “inhibition of EGF-dependent invasion” value is “inhibit”, the “inhibition of insulin-dependent invasion” value is “inhibit”, the “inhibition of VN-induced invasiveness” value is on record as “inhibit” and the “inhibition of uPA-induced invasiveness” value is “inhibit”. Further, in experiment [2], the “inhibition of FN-induced invasion” value is listed as “inhibit” and the “stimulation of Matrigel invasiveness of HT1080 cells” value (shortened to “stimulation … of HT1080 cells”) is “have no effects”. Besides, the “inhibition of vitronectin (VN)-induced chemotaxis of KG-1 cells” value in [3] was “inhibited”. In [4], the “inhibition of VN-dependent chemotaxis” value is “inhibit”, the “inhibition of uPA-dependent chemotaxis” value is reported as “inhibit”, the “inhibition of EGF-dependent chemotaxis” value is given as “inhibit” and the “inhibition of UTP-dependent chemotaxis” value is recorded as “inhibit”.

Regarding GEEG, in [2], the “concentration of peak stimulation of Matrigel invasiveness” value is listed as “around 1 pM” and the “stimulation … of HT1080 cells” value is “stimulate”.

Take “IQEGAAGRPKDDR [D2A-Ala, D2A with two glutamic acids changed into two alanines]”: in experiment [5], the “cell migration in the presence of VN” value was 94.50 ± 19.58 % of control and the cell migration was 110.19 ± 26.63 % of control. Moreover, in [6], the “cell migration in the presence of VN” value is reported as 108.18 ± 13.90 % of control and the cell migration was 108.72 ± 17.37 % of control. Further, in experiment [1] (RSMC), the “inhibition of FN-induced migration” value is listed as “inhibited”, the “inhibition of LN-induced migration” value is listed as “inhibited”, the “stimulation of RSMC migration (chemotactic activity)” value (“stimulation of RSMC migration” for short) is “failed to stimulate cell migration” and the “inhibition of VN-induced RSMC migration” value is listed as “completely abrogated”. For the same compound, in experiment [1] (VN-stimulated RSMC), the “concentration at which an effect on VN-induced cell migration is already visible” value stood at 10 fM and the “concentration giving complete inhibition of VN-induced cell migration” value turned out to be 1 pM. Besides, in experiment [7], the “inhibition of VN-induced migration” value is reported as “totally inhibited”. For the same compound, in experiment [8], the “inhibition of VN-induced migration” value is recorded as “totally inhibited”. In addition, the “effect on uPAR-αvβ3 co-immunoprecipitation” value in experiment [9] (in the presence of uPA) is listed as “prevented”. The “cell morphology and actin cytoskeleton organization” value in [10] is “did not promote the change of morphology and reorganization of actin cytoskeleton”. The “Stat1 activation and translocation into the nucleus” value in experiment [11] is reported as “failed to activate Stat1”. In experiment [11] (peptide 1 pM with VN 1 μg/ml), the “inhibition of VN-induced translocation of Stat1” value is recorded as “inhibited”. Moreover, in [2], the “inhibition of EGF-dependent invasion” value is “inhibit”, the “inhibition of insulin-dependent invasion” value is reported as “inhibit”, the “inhibition of VN-induced invasiveness” value is “inhibit” and the “inhibition of uPA-induced invasiveness” value is recorded as “inhibit”. Further, in [2], the “inhibition of FN-induced invasion” value is recorded as “inhibit” and the “stimulation … of HT1080 cells” value is reported as “have no effects”. Further, the “inhibition of vitronectin (VN)-induced chemotaxis of KG-1 cells” value in experiment [3] was “inhibited”. For the same compound, in experiment [4], the “inhibition of VN-dependent chemotaxis” value was “inhibit”, the “inhibition of uPA-dependent chemotaxis” value is “inhibit”, the “inhibition of EGF-dependent chemotaxis” value is given as “inhibit” and the “inhibition of UTP-dependent chemotaxis” value is given as “inhibit”.

On to IQEGEEGRPKDDR [D2A], for which, in experiment [5], the “cell migration in the presence of VN” value was 190.23 ± 35.24 % of control and the cell migration is on record as 106.98 ± 11.78 % of control. Also, in [6], the “cell migration in the presence of VN” value is 400.88 ± 17.41 % of control and the cell migration is 325.48 ± 14.42 % of control. Further, in [12] (LB6-D1HD3 cells, at 10 pM, peptide per se), the “maximal increase of migration” value is reported as 2 fold. The “effect on response to VN of non-responsive LB6-D1HD3 cells” value in [12] (with VN 1 μg/ml) is “restored the response to VN”. The “stimulation of RSMC migration” value in experiment [1] (RSMC) is reported as “equally active in stimulating migration”. Moreover, the “additivity of chemotactic effects with VN” value in [1] (RSMC, D2A 1 pM combined with VN 1 μg/ml) is “did not further increase cell migration”. In addition, the “reduction of coimmunoprecipitated suPAR compared to uPA alone” value in experiment [9] (uPA plus peptide, αvβ3) is recorded as “approximately 50%”. Further, in experiment [13], the “effect on uPA-induced co-immunoprecipitation of suPAR and α5β1” value is on record as “can also prevent”. Besides, the “cell morphology and actin cytoskeleton organization” value in [10] was “a complete change of morphology and cytoskeleton organization occurred”. Further, the “Stat1 activation and translocation into the nucleus” value in experiment [11] is on record as “induced its translocation into the nucleus”. Further, in [2], the “concentration of peak stimulation of Matrigel invasiveness” value is reported as “around 1 pM” and the “stimulation … of HT1080 cells” value is on record as “stimulate”. In addition, the “chemotaxis of KG-1 cells” value in experiment [3] is on record as “stimulated migration”.

As for RDDKPRGEEGEQI [D2B], the “stimulation of RSMC migration” value in experiment [1] (RSMC) was “equally active in stimulating migration”. Also, the “chemotaxis of KG-1 cells” value in experiment [3] is recorded as “also promotes the migration”.
